Reference: US20060069132A1, “Azolecarboxamide herbicides” (priority 2004, published 2006)
Read-outs that look alike come from different tables or passages of the source.

Assays:
[1] = test system: barnyardgrass; assay: Test A pre-/postemergence herbicide test; format: in vivo, Echinochloa crus-galli; settings: for pest or weed control at 500 g/ha / pest or weed control at 2000 g/ha: Echinochloa crus-galli, 240 h
Summary of the method: (§1)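 Greenhouse injury scoring (0–100, complete control = 100) at approximately ten days follows simultaneous pre- and postemergence application. Soil received a directed spray after seeding; seedlings of 2–10 cm at the one- to two-leaf stage were sprayed to runoff.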

[2] = test system: large crabgrass; assay: Test A pre-/postemergence herbicide test; format: in vivo, Digitaria sanguinalis; settings: for pest or weed control at 500 g/ha / pest or weed control at 2000 g/ha: Digitaria sanguinalis, 240 h
Summary of the method: as §1

[3] = test system: giant foxtail; assay: Test A pre-/postemergence herbicide test; format: in vivo, Setaria faberi; settings: for pest or weed control at 500 g/ha / pest or weed control at 2000 g/ha: Setaria faberi, 240 h
Summary of the method: as §1

[4] = test system: blackgrass; assay: Test B postemergence herbicide test; format: in vivo, Alopecurus myosuroides; settings: scale 0 (no effect) to 100 (complete control); for Blackgrass plant response rating: postemergence, visual rating
Summary of the method: (§2)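 Scale 0–100: zero equals no visible effect, 100 complete control, judged by eye relative to controls. Timing: 13 to 15 days in greenhouse post-treatment. Growth stage at spraying: two leaves (paddy) or one to four leaves, 2–18 cm (postemergence).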

[5] = test system: ducksalad; assay: Test B flooded paddy test; format: in vivo, Heteranthera limosa; settings: 1000 g ai/ha, visual rating, scale 0 to 100 (0 no effect, 100 complete control), 13 to 15 days
Summary of the method: as §2

[6] = test system: cocklebur; assay: Test C pre-/postemergence herbicide test; format: in vivo, Xanthium strumarium
Summary of the method: (§3)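 Pre/post spray; non-phytotoxic solvent + surfactant. Post-timing 1–4 leaves, 2–18 cm. Read-out: visual % control vs untreated, day 12–14, greenhouse.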

[7] = test system: corn; assay: Test C pre-/postemergence herbicide test; format: in vivo, Zea mays
Summary of the method: as §3

[8] = test system: woolly cupgrass; assay: Test C pre-/postemergence herbicide test; format: in vivo, Eriochloa villosa
Summary of the method: as §3

[9] = test system: common (oilseed) sunflower; assay: Test C pre-/postemergence herbicide test; format: in vivo, Helianthus annuus
Summary of the method: as §3

[10] = test system: ducksalad; assay: Test C flooded paddy test; format: in vivo, Heteranthera limosa
[11] = Preemergence, 500 g ai/ha, scale 0 to 100, 0 no effect, 100 complete control
[12] = Postemergence, 500 g ai/ha, 0 to 100 scale, 0 no effect, 100 complete control
[13] = Postemergence, 2000 g ai/ha, 0 to 100 scale, 0 no effect, 100 complete control
[14] = Preemergence, 2000 g ai/ha, visual rating, 0 to 100 scale (0 no effect, 100 complete control)
[15] = preemergence, 500 g ai/ha, visual injury, 0 to 100 scale (0 no effect, 100 complete control)
[16] = 62 g ai/ha, preemergence, scale 0 to 100
[17] = 125 g ai/ha, scale 0 (no effect) to 100 (complete control), visual, 12 to 14 days, preemergence
[18] = 250 g ai/ha, scale 0-100, preemergence
[19] = 500 g ai/ha, scale 0 to 100 (0 no effect, 100 complete control), visual, 12 to 14 days, preemergence

## CCn1nc(C(C)(C)C)cc1C(=O)Nc1cccc2c1CN(C)C2=O [Compound 55, N-(2,3-dihydro-2-methyl-1-oxo-1H-isoindol-4-yl)-3-(1,1-dimethylethyl)-1-ethyl-1H-pyrazole-5-carboxamide]
[1]; post-emergence, Postemergence, 500 g ai/ha, 0 to 100 scale, 0 no effect, 100 complete control, read-out: Plant response rating, Barnyardgrass
  pest or weed control at 500 g/ha: 90%
[1]; post-emergence, Postemergence, 2000 g ai/ha, 0 to 100 scale, 0 no effect, 100 complete control, read-out: Plant response rating, Barnyardgrass
  pest or weed control at 2000 g/ha: 100%
[1]; pre-emergence, Preemergence, 500 g ai/ha, visual rating, 0 to 100 scale (0 no effect, 100 complete control), read-out: Barnyardgrass plant response rating
  pest or weed control at 500 g/ha: 80%
[1]; pre-emergence, Preemergence, 2000 g ai/ha, 0 to 100 scale, 0 no effect, 100 complete control, read-out: Barnyardgrass plant response rating
  pest or weed control at 2000 g/ha: 95%
[2]; post-emergence, Postemergence, 500 g ai/ha, 0 to 100 scale, 0 no effect, 100 complete control, read-out: Plant response rating, Crabgrass, Large
  pest or weed control at 500 g/ha: 25%
[2]; post-emergence, Postemergence, 2000 g ai/ha, 0 to 100 scale, 0 no effect, 100 complete control, read-out: Plant response rating, Crabgrass, Large
  pest or weed control at 2000 g/ha: 100%
[2]; pre-emergence, Preemergence, 500 g ai/ha, visual rating, 0 to 100 scale (0 no effect, 100 complete control), read-out: Crabgrass, Large plant response rating
  pest or weed control at 500 g/ha: 75%
[2]; pre-emergence, Preemergence, 2000 g ai/ha, 0 to 100 scale, 0 no effect, 100 complete control, read-out: Crabgrass, Large plant response rating
  pest or weed control at 2000 g/ha: 100%
[3]; post-emergence, Postemergence, 500 g ai/ha, 0 to 100 scale, 0 no effect, 100 complete control, read-out: Plant response rating, Foxtail, Giant
  pest or weed control at 500 g/ha: 30%
[3]; post-emergence, Postemergence, 2000 g ai/ha, 0 to 100 scale, 0 no effect, 100 complete control, read-out: Plant response rating, Foxtail, Giant
  pest or weed control at 2000 g/ha: 80%
[3]; pre-emergence, Preemergence, 500 g ai/ha, visual rating, 0 to 100 scale (0 no effect, 100 complete control), read-out: Foxtail, Giant plant response rating
  pest or weed control at 500 g/ha: 60%
[3]; pre-emergence, Preemergence, 2000 g ai/ha, 0 to 100 scale, 0 no effect, 100 complete control, read-out: Foxtail, Giant plant response rating
  pest or weed control at 2000 g/ha: 100%
[4]; Postemergence, 500 g ai/ha, visual rating after 13 to 15 days
  Plant response rating, Blackgrass: 10
[5]; Heteranthera limosa, 336 h, read-out: Ducksalad plant response rating
  pest or weed control at 1000 g/ha: 80%
[6]; 62 g ai/ha, preemergence
  Plant response rating (0 = no effect, 100 = complete control), Cocklebur: 0
[6]; Xanthium strumarium, pre-emergence, 312 h, 125 g ai/ha, scale 0 (no effect) to 100 (complete control), visual, 12 to 14 days, read-out: Plant response rating, Cocklebur
  pest or weed control at 125 g/ha: 0%
[6]; Xanthium strumarium, pre-emergence, 312 h, 250 g ai/ha, scale 0 to 100 (0 no effect, 100 complete control), visual, 12 to 14 days, read-out: Plant response rating, Cocklebur
  pest or weed control at 250 g/ha: 0%
[6]; Xanthium strumarium, pre-emergence, 312 h, Preemergence, 500 g ai/ha, scale 0 to 100, 0 no effect, 100 complete control, read-out: Cocklebur plant response rating
  pest or weed control at 500 g/ha: 0%
[7]; 62 g ai/ha, preemergence
  Plant response rating (0 = no effect, 100 = complete control), Corn: 0
[7]; [11]
  Corn plant response rating: 0
[7]; Zea mays, pre-emergence, 312 h, 125 g ai/ha, scale 0 (no effect) to 100 (complete control), visual, 12 to 14 days
  Corn plant response rating (crop injury, 0 = no effect, 100 = complete kill) at 125 g/ha: 0%
[7]; Zea mays, pre-emergence, 312 h, 250 g ai/ha, scale 0 to 100 (0 no effect, 100 complete control), visual, 12 to 14 days
  Corn plant response rating (crop injury, 0 = no effect, 100 = complete kill) at 250 g/ha: 0%
[8]; 62 g ai/ha, preemergence
  Plant response rating (0 = no effect, 100 = complete control), Cupgrass, Woolly: 0
[8]; Eriochloa villosa, pre-emergence, 312 h, 125 g ai/ha, scale 0 (no effect) to 100 (complete control), visual, 12 to 14 days, read-out: Plant response rating, Cupgrass, Woolly
  pest or weed control at 125 g/ha: 25%
[8]; Eriochloa villosa, pre-emergence, 312 h, 250 g ai/ha, scale 0 to 100 (0 no effect, 100 complete control), visual, 12 to 14 days, read-out: Plant response rating, Cupgrass, Woolly
  pest or weed control at 250 g/ha: 55%
[8]; [11]
  Cupgrass, Woolly plant response rating: 65
[9]; 62 g ai/ha, preemergence
  Plant response rating (0 = no effect, 100 = complete control), Sunflower: 0
[9]; Helianthus annuus, pre-emergence, 125 g ai/ha, scale 0 (no effect) to 100 (complete control), visual, 12 to 14 days, read-out: Plant response rating, Sunflower
  pest or weed control at 125 g/ha: 0%
[9]; Helianthus annuus, pre-emergence, 250 g ai/ha, scale 0 to 100 (0 no effect, 100 complete control), visual, 12 to 14 days, read-out: Plant response rating, Sunflower
  pest or weed control at 250 g/ha: 0%
[9]; [11]
  Sunflower plant response rating: 0
[10]; Heteranthera limosa, 62 g ai/ha, scale 0 to 100 (0 no effect, 100 complete control), read-out: Ducksalad plant response rating
  pest or weed control at 62 g/ha: 0%
[10]; Heteranthera limosa, 125 g ai/ha, scale of 0 to 100, 0 is no effect, 100 is complete control, read-out: Ducksalad plant response rating
  pest or weed control at 125 g/ha: 0%
[10]; Heteranthera limosa, 250 g ai/ha, scale of 0 to 100, 0 is no effect, 100 is complete control, read-out: Ducksalad plant response rating
  pest or weed control at 250 g/ha: 55%
[10]; Heteranthera limosa, 500 g ai/ha, visual rating after 12 to 14 days, scale 0 to 100 (0 no effect, 100 complete control), read-out: Plant response rating, Ducksalad
  pest or weed control at 500 g/ha: 80%

## CCNC(=O)c1cccc(NC(=O)c2sc(C(C)(C)C)nc2CC)c1 [Compound 210]
[1]; [12]
  Barnyardgrass plant response rating: 80
[1]; [13]
  Plant response rating, Barnyardgrass: 80
[1]; [14]
  Barnyardgrass plant response rating: 90
[1]; [15]
  Barnyardgrass plant response rating: 85
[2]; [12]
  Crabgrass, Large plant response rating: 40
[2]; [13]
  Plant response rating, Crabgrass, Large: 65
[2]; [14]
  Crabgrass, Large plant response rating: 100
[2]; [15]
  Crabgrass, Large plant response rating: 90
[3]; [12]
  Foxtail, Giant plant response rating: 40
[3]; [13]
  Plant response rating, Foxtail, Giant: 75
[3]; [14]
  Foxtail, Giant plant response rating: 100
[3]; [15]
  Foxtail, Giant plant response rating: 100
[4]; 125 g ai/ha
  Blackgrass plant response rating: 10
[4]; 500 g ai/ha
  Blackgrass plant response rating: 30
[5]
  Ducksalad plant response rating: 80
[6]; [16]
  Plant response rating, Cocklebur: 0
[6]; [17]
  Plant response rating, Cocklebur: 0
[6]; [18]
  Plant response rating, Cocklebur: 0
[6]; [11]
  Cocklebur plant response rating: 5
[7]; [16]
  Plant response rating, Corn: 0
[7]; [17]
  Plant response rating, Corn: 10
[7]; [18]
  Plant response rating, Corn: 20
[7]; [19]
  Plant response rating, Corn: 40
[8]; [16]
  Plant response rating, Cupgrass, Woolly: 0
[8]; [17]
  Plant response rating, Cupgrass, Woolly: 0
[8]; [18]
  Plant response rating, Cupgrass, Woolly: 5
[8]; [19]
  Plant response rating, Cupgrass, Woolly: 10
[9]; [16]
  Plant response rating, Sunflower: 0
[9]; [17]
  Plant response rating, Sunflower: 0
[9]; [18]
  Plant response rating, Sunflower: 0
[9]; [19]
  Plant response rating, Sunflower: 0
[10]; 62 g ai/ha, scale 0 to 100 (0 no effect, 100 complete control)
  Ducksalad plant response rating: 40
[10]; 125 g ai/ha, scale 0 to 100 (0 no effect, 100 complete control)
  Ducksalad plant response rating: 55
[10]; 250 g ai/ha, scale of 0 to 100, 0 is no effect, 100 is complete control
  Ducksalad plant response rating: 85
[10]; 500 g ai/ha, visual rating after 12 to 14 days, scale 0 to 100 (0 no effect, 100 complete control)
  Plant response rating, Ducksalad: 90
